# In patent US6365591B1, “Isoxazolecarboxamide derivatives” (Recordati, S.A., Chemical and Pharmacueticals Company, priority 1999, dated 2002):
# Experiments:
# [1] = biological target: T1, human 5-HT1A-serotoninergic receptor (Homo sapiens, UniProt P08908); experiment: Radioligand binding ([3H]8-OH-DPAT) to cloned 5-HT1A receptor in HeLa cell membranes; settings: mean Ki, read-out: Affinity for 5-HT1A receptor, Ki
# T1 construct: expressed in transfected cells; host or cells: HeLa
# T1 sequence (P08908 1-422): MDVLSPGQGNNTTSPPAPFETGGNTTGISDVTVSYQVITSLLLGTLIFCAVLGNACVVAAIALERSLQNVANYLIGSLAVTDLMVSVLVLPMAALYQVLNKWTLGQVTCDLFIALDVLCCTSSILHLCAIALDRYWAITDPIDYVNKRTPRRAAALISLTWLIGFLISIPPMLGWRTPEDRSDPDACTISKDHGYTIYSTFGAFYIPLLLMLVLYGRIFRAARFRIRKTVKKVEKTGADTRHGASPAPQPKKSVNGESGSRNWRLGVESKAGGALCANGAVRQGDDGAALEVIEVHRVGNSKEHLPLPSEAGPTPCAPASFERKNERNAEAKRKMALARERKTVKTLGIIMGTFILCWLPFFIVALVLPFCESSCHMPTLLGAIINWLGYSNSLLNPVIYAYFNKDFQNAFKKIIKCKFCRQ
# From the text: Data were expressed as mean Ki.
# [2] = biological target: T2, recombinant α1b-adrenoceptor (Homo sapiens, UniProt P35368); experiment: biochemical
# T2 sequence (P35368 1-520): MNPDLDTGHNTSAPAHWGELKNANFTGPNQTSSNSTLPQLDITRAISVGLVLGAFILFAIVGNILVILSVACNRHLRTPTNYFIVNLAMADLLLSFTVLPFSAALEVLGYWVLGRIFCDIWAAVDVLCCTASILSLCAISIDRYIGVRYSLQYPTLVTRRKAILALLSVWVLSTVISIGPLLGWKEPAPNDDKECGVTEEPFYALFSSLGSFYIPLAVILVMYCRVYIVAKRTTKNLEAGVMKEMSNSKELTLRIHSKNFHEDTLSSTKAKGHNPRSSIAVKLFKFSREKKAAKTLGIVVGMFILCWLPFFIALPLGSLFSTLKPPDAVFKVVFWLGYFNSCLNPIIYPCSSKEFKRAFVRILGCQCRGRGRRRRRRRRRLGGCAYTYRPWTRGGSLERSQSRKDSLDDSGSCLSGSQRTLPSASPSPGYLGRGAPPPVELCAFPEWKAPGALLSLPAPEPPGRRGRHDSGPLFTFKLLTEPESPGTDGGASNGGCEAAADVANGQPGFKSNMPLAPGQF
# Method: (§1) Determination of Affinity for Cloned α1 Adrenergic Receptors and 5-HT1A Serotoninergic Receptors by Radioligand Binding Assay
# (§2) Determination of affinity for cloned subtypes of the α1-adrenoceptor was performed in membranes from cells transfected by electroporation with DNA expressing the genes encoding each α1-adrenoceptor subtype.
# (§3) Non-specific binding was determined in the presence of 10 μM phentolamine. Incubation was stopped by addition of ice-cold Tris buffer and rapid filtration through 0.2%-polyethyleneimine pretreated Schleicher & Schuell GF52 filters.
# [3] = biological target: T3, recombinant α1a-adrenoceptor (UniProt P35348); settings: read-out: Affinity for recombinant α1a-adrenoceptor subtype, Ki; [3H]prazosin, membranes of transfected cells; mean Ki
# T3 sequence (P35348 1-466): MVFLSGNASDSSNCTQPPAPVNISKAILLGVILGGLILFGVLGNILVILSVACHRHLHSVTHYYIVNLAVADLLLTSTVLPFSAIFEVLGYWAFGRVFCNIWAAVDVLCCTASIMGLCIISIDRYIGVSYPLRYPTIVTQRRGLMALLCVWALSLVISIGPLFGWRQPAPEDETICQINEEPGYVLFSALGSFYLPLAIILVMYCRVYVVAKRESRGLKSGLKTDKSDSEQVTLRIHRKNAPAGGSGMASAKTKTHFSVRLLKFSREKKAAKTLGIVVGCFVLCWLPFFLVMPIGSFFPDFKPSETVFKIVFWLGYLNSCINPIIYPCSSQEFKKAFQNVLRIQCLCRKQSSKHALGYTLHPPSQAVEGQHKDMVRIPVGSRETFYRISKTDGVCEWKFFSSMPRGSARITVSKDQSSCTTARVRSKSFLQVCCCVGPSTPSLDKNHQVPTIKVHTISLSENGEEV
# Method: as §1, §2, §3
Ki [1] [nM],Ki [2] [nM],Ki [3] [nM],SMILES
49.5,9.97,,"Cc1onc(-c2ccccc2)c1C(=O)NCCCN1CCN(c2cc(Cl)ccc2O)CC1 [Example 2, N-{3-[4-(5-Chloro-2-hydroxyphenyl)-1-piperazinyl]propyl}-5-methyl-3-phenylisoxazole-4-carboxamide]"
11.7,36.2,,"Cc1onc(-c2ccccc2)c1C(=O)NCCCN1CCN(c2ccccc2OCC(F)(F)F)CC1 [Example 3, 5-Methyl-3-phenyl-N-{3-[4-[2-(2,2,2-trifluoroethoxy)phenyl]-1-piperazinyl]propyl}isoxazole-4-carboxamide]"
,570,,"COc1ccc(OCC(F)(F)F)cc1N1CCN(CCCNC(=O)c2c(-c3ccccc3)noc2C)CC1 [Example 4, N-{3-[4-[2-Methoxy-5-(2,2,2-trifluoroethoxy)phenyl]-1-piperazinyl]propyl}-5-methyl-3-phenylisoxazole-4-carboxamide]"
192,11.5,0.05,"Cc1onc(-c2ccccc2)c1C(=O)NCCCN1CCN(c2cc(F)ccc2OCC(F)(F)F)CC1 [Example 5, N-{3-[4-[5-Fluoro-2-(2,2,2-trifluoroethoxy)phenyl]-1-piperazinyl]propyl}-5-methyl-3-phenylisoxazole-4-carboxamide]"
≥ 1000,7.49,,"Cc1onc(-c2ccccc2)c1C(=O)NCCCN1CCN(c2cc(Cl)ccc2OS(=O)(=O)C(F)(F)F)CC1 [Example 7, N-{3-[4-(5-Chloro-2-trifluoromethanesulphonyloxy)-1-piperazinyl]propyl}-5-methyl-3-phenylisoxazole-4-carboxamide]"
342,24.1,,"Cc1onc(-c2c(F)cccc2Cl)c1C(=O)NCCCN1CCN(c2ccc(F)cc2OCC(F)(F)F)CC1 [Example 9, 3-(2-Chloro-6-fluorophenyl)-N-[3-[4-[4-fluoro-2-(2,2,2-trifluoroethoxy)phenyl]-1-piperazinyl]-propyl]-5-methylisoxazole-4-carboxamide]"
170,24.2,,"Cc1onc(-c2c(Cl)cccc2Cl)c1C(=O)NCCCN1CCN(c2ccc(F)cc2OCC(F)(F)F)CC1 [Example 10, 3-(2,6-Dichlorophenyl)-N-[3-[4-[4-fluoro-2-(2,2,2-trifluoroethoxy)phenyl]-1-piperazinyl]pro-pyl]-5-methylisoxazole-4-carboxamide]"
242,31.2,,"Cc1onc(-c2ccccc2Cl)c1C(=O)NCCCN1CCN(c2ccc(F)cc2OCC(F)(F)F)CC1 [Example 11, 3-(2-Chlorophenyl)-N-[3-[4-[4-fluoro-2-(2,2,2-trifluoroethoxy)phenyl]-1-piperazinyl]propyl]-5-methylisoxazole-4-carboxamide]"
30,21.4,,"Cc1onc(-c2c(F)cccc2Cl)c1C(=O)NCCCN1CCN(c2ccccc2OCC(F)(F)F)CC1 [Example 12, 3-(2-Chloro-6-fluorophenyl)-5-methyl-N-[3-[4-[2-(2,2,2-trifluoroethoxy)phenyl]1-piperazi-nyl]propyl]isoxazole-4-carboxamide]"
